Reference: US8673586B2, “Compounds that interact with kinases” (Alchemia Limited, priority 2002, dated 2014)

How the values were obtained:
Type in all cases: biochemical
PKC-beta1 = PKC-beta1 (Homo sapiens, UniProt P05771); experiment: PKC-beta1 kinase assay, 33P-ATP incorporation, residual activity; conditions: tested at 25 micromolar
Method: (§1) Compounds were tested in vitro as follows.
(§2) Recombinant protein kinases, which were expressed as fusion proteins in SF9 insect cells or E. coli, were used for all in vitro assays. The purity and identity of each kinase was checked by SDS-PAGE/silver staining and by western blot analysis with specific antibodies.
(§3) All kinase assays except for p38a (see below) were performed in 96-well micro-titre plates. The assay components included assay buffer, ATP, test compound, enzyme and substrate.
The assay for the PKCs contained 60 mM HEPES-NaOH, pH 7.5, 1 mM EDTA, 1.25 mM EGTA, 5 mM MgCl2, 1.32 mM CaCl2, 5 μg/ml Phosphatidylserine, 1 μg/ml 1.2 Dioleyl-glycerol, 1.2 mM DTT, 50 μg/ml PEG20000, 0.1 μM [γ-^33P]-ATP (approx. 5×10^5 cpm per well).
(§4) The reaction cocktails were incubated at 30° C. for 80 minutes. The reaction was stopped with 50 μl of 2% (v/v) H3PO4, plates were aspirated and washed twice with 200 μl of H2O or 0.9% (w/v) NaCl. Incorporation of ^33Pi was determined with a microplate scintillation counter.
(§5) All data is presented as residual activity, which is the activity of the enzyme in the presence of the stipulated concentration of inhibitor or compound. 100% activity is the maximum activity of the enzyme in the absence of any inhibitor or compound.
(§6) In all experiments the Z′ value was calculated according to Zhang et al to (J-H Zhang, T. D. Y Chung, K. R. Oldenburg (1999) Journal of Biomolecular Screening 4:67-73) using the standard deviations and mean values of the positive and negative controls. Z′=1−(3*Stdevneg+3*Stdevpos)/(Meanpos−Meanneg)
(§7) Only data where the Z′ value was >0.5 was used.

TIE2 = molecular target: T1, TIE2 (Homo sapiens, UniProt Q02763); experiment: TIE2 kinase assay, 33P-ATP incorporation, residual activity
T1 construct: made in house
T1 sequence (Q02763 23-1124, species assumed): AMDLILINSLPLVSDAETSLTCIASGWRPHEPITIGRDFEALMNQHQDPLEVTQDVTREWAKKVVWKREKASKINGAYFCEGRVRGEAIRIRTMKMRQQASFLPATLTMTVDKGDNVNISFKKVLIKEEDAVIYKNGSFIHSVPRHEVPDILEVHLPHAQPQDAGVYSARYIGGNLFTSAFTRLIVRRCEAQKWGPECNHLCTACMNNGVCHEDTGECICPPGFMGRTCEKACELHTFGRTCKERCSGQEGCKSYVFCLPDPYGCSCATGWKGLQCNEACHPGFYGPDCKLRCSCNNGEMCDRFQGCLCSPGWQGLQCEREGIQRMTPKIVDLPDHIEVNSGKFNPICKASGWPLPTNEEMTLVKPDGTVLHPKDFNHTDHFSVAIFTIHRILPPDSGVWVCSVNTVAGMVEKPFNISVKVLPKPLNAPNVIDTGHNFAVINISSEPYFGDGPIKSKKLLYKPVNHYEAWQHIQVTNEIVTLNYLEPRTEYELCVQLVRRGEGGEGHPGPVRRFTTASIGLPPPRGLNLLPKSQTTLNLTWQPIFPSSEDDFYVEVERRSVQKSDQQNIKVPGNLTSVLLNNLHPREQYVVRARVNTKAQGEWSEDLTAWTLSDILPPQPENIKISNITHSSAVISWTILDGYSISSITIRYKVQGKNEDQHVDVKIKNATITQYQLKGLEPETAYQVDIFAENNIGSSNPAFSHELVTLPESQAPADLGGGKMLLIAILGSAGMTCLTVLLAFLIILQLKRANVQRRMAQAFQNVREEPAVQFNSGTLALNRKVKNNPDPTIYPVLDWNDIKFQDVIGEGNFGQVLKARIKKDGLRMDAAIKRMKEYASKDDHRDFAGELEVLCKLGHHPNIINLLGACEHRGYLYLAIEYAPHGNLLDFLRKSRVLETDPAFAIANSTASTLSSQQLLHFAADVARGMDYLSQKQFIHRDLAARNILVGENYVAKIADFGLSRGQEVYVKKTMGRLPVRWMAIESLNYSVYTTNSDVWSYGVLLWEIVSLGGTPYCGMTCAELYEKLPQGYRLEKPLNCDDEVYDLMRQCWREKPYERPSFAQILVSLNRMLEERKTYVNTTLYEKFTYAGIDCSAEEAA
Method: as §1, §2, §3
(§8) The assay for all enzymes (except for the PKC see below, contained 60 mM HEPES-NaOH, pH 7.5, 3 mM MgCl2, 3 mM MnCl2, 3 μM Na-orthovanadate, 1 mM […], 0.1 μM [γ-^33P]-ATP (approx. 5×10^5 cpm per well).
as §4, §5, §6, §7

KIT = molecular target: T2, KIT (Homo sapiens, UniProt P10721); experiment: KIT kinase assay, 33P-ATP incorporation, residual activity
T2 construct: made in house
Method: as §1, §2, §3, §8, §4, §5, §6, §7

ABL = ABL (Homo sapiens, UniProt P00519); experiment: ABL kinase assay, 33P-ATP incorporation, residual activity; conditions: tested at 25 micromolar
Sequence of ABL (P00519 whole entry, species assumed): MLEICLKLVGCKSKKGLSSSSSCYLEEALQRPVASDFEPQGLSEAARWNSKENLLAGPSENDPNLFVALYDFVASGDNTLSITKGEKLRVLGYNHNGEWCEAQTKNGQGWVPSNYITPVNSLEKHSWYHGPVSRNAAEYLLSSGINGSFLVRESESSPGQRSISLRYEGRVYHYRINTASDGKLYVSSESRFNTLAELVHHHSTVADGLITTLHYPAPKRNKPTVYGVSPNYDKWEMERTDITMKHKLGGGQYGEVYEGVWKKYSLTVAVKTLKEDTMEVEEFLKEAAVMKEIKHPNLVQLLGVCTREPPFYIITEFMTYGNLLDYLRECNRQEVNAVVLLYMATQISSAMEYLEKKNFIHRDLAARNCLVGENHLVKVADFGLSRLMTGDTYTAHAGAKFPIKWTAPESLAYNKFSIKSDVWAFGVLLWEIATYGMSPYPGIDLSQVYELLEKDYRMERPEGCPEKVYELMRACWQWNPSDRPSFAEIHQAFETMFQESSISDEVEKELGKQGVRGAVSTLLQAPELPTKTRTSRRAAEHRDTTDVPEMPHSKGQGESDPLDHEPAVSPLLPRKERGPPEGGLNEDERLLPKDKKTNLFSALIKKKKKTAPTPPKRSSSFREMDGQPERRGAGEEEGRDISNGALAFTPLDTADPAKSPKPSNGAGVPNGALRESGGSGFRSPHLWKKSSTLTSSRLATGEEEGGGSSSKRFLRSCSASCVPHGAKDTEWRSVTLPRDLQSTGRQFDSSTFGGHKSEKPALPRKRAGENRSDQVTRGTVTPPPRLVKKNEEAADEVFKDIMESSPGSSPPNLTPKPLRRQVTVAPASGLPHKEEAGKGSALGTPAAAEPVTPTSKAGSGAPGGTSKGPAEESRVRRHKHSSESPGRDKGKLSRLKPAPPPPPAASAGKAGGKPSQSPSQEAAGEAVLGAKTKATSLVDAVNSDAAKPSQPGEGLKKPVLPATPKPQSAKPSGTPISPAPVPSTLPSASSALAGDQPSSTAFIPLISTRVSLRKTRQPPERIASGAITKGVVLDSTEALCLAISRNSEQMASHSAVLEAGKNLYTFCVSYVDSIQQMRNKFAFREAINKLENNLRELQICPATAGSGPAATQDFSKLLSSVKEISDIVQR
Method: as §1, §2, §3, §8, §4, §5, §6, §7

EGF-R = EGF-R (Homo sapiens, UniProt P00533); experiment: EGF-R kinase assay, 33P-ATP incorporation, residual activity; conditions: tested at 25 micromolar
Sequence of EGF-R (P00533 25-1210, species assumed): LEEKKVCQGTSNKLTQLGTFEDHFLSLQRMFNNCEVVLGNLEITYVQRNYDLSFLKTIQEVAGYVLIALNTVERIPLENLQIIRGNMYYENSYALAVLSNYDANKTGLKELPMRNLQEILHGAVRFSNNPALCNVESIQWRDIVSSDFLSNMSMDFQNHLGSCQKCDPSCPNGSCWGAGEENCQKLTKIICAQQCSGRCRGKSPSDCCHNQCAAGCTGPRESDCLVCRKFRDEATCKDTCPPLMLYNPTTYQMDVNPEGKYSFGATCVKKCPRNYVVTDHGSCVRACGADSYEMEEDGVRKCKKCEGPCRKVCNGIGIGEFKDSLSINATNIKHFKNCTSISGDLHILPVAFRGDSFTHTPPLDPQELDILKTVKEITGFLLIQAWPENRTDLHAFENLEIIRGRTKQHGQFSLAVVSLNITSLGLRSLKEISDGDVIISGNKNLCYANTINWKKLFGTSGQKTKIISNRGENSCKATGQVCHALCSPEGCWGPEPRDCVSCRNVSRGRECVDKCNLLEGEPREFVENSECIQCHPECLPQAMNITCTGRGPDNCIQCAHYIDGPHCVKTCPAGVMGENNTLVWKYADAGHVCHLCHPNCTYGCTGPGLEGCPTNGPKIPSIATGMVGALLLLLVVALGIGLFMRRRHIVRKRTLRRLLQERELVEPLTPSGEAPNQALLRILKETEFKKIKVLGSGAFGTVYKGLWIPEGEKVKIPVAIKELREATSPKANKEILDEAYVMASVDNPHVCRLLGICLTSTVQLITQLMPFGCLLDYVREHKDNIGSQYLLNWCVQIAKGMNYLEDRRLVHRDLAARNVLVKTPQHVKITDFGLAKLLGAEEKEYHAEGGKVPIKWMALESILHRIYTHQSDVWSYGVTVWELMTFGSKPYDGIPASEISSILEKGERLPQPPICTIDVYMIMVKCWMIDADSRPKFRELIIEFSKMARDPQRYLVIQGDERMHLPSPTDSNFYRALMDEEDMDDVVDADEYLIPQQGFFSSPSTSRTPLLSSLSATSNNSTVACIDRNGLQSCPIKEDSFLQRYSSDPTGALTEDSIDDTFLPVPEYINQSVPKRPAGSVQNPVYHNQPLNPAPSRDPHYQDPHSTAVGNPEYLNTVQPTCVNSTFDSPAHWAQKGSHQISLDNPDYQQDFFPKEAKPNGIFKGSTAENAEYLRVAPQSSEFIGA
Method: as §1, §2, §3, §8, §4, §5, §6, §7

VEGF-R2 = molecular target: T3, VEGF-R2 (Homo sapiens, UniProt P35968); experiment: VEGF-R2 kinase assay, 33P-ATP incorporation, residual activity; set-up: key: % residual kinase activity (100% = no inhibitor)
T3 construct: made in house
T3 sequence (P35968 20-1356): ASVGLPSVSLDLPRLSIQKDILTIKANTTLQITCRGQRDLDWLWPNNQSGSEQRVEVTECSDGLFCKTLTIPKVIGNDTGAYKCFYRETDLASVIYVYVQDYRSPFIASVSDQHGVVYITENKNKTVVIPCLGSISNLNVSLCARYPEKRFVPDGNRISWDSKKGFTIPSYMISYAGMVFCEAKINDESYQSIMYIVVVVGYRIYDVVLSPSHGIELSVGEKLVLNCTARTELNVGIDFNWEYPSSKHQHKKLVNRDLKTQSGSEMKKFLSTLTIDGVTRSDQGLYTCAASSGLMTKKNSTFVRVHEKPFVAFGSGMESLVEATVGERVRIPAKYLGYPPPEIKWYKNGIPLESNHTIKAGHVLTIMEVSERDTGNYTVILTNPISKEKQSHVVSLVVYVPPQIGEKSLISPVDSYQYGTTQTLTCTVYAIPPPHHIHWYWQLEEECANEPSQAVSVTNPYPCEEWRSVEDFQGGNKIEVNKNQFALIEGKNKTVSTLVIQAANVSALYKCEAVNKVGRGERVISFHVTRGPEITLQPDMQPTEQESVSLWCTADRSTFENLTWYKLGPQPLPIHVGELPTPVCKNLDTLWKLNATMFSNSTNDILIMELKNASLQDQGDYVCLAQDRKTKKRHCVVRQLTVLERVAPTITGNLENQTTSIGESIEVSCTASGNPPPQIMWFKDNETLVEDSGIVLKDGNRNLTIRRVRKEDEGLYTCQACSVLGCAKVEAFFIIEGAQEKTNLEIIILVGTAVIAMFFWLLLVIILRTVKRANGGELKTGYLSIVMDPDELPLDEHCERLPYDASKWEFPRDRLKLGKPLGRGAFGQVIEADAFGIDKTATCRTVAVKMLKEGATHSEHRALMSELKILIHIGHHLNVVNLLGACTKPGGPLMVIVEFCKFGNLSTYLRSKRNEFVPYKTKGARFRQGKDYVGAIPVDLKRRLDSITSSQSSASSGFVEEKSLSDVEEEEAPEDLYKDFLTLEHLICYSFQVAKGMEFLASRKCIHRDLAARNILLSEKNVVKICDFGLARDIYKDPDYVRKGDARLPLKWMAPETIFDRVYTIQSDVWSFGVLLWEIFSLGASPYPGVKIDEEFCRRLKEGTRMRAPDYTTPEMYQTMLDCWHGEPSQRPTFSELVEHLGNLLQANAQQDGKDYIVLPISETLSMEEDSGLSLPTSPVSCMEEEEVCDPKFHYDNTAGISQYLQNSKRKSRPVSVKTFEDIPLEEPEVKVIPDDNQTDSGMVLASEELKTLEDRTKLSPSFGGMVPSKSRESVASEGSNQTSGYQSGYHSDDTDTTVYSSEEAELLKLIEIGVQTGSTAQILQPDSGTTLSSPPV
Method: as §1, §2, §3, §8, §4, §5, §6, §7

MET = molecular target: T4, MET (Homo sapiens, UniProt P08581); experiment: MET kinase assay, 33P-ATP incorporation, residual activity; set-up: key: % residual kinase activity (100% = no inhibitor); conditions: tested at 25 micromolar
T4 construct: made in house
Method: as §1, §2, §3, §8, §4, §5, §6, §7

PDGF-Ralpha = molecular target: T5, PDGF-Ralpha (Homo sapiens, UniProt P16234); experiment: PDGF-Ralpha kinase assay, 33P-ATP incorporation, residual activity; conditions: tested at 25 micromolar
T5 construct: made in house
Method: as §1, §2, §3, §8, §4, §5, §6, §7

CDK2/CycA = CDK2/CycA (Homo sapiens, UniProt P24941); experiment: CDK2/CycA kinase assay, 33P-ATP incorporation, residual activity; conditions: tested at 25 micromolar
Method: as §1, §2, §3, §8, §4, §5, §6, §7

[1] = molecular target: mitogen-activated protein kinase p38α (Homo sapiens, UniProt Q16539); experiment: p38α assay, NanoCarrier 2080 format, fluorescence polarization (2D-FIDA anisotropy)
Sequence of mitogen-activated protein kinase p38α (Q16539 whole entry, species assumed): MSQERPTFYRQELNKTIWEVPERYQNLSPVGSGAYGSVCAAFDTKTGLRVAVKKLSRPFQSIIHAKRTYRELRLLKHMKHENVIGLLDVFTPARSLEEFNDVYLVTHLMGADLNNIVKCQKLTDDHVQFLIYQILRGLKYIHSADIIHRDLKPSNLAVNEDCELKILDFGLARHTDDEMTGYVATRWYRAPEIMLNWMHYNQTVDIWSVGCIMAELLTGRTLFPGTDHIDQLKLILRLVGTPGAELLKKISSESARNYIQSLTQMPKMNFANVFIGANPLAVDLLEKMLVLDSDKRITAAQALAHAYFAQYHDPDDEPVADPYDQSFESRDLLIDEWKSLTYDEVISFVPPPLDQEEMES
Method: as §1, §2
The mitogen-activated protein kinase p38α assays were done in a proprietary microassay NanoCarrier™ 2080 format. In these assays phosphorylation was detected by a phospho-substrate specific monoclonal antibody in an indirect competition assay. The degree of binding of the antibody to the phospho-substrate was measured by fluorescence polarization using 2D-FIDA anisotrophy. In these experiments the final concentration of the enzyme was 1.6 nM and the substrate was 2 μM.
as §5, §6, §7

[2] = compounds marked !: tested at 2.5 micromolar

Structure (SMILES)	PKC (PKC-beta1)	Tie2 (TIE2; tested at 25 micromolar)	c-Kit (KIT; tested at 25 micromolar)	ABL (ABL)	EGF-R (EGF-R)	VEGF (VEGF-R2; tested at 25 micromolar)	MET (MET)	PDGFalpha (PDGF-Ralpha)	CDK2 (CDK2/CycA)	P38 ([1]; tested at 25 micromolar)	Tie2 (TIE2; [2])	c-Kit (KIT; [2])	P38 [1, 2]	VEGF (VEGF-R2; [2])
Cc1cccc(CSc2nc3cc(C(N)=O)ccc3n2C[C@H]2O[C@@H](n3cnc4c(N)ncnc43)[C@H](O)[C@@H]2O)c1 [compound 100]	80	42	52	109	69	58	88	106	70	–	–	–	–	–
CCCCCCCCSc1nc2cc(C(N)=O)ccc2n1C[C@H]1O[C@@H](n2nnc(C(N)=O)c2-c2ccccc2)[C@H](O)[C@@H]1O [compound 146]	142	71	53	115	94	101	78	127	270	–	–	–	–	–
Nc1ncnc2c1ncn2[C@@H]1O[C@H](CN2C(=O)C(Cc3ccccc3)N(Cc3ccccc3[N+](=O)[O-])C2=O)[C@@H](O)[C@H]1O (some centres unmarked) [compound 212]	26	1	12	41	23	10	46	38	25	–	–	–	–	–
Nc1ncnc2c1ncn2[C@@H]1O[C@H](CN2C(=O)C(Cc3ccccc3)N(Cc3cccn3S(=O)(=O)c3ccccc3)C2=O)[C@@H](O)[C@H]1O (some centres unmarked) [compound 223]	10	0	109	24	22	11	31	17	40	–	–	–	–	–
CCn1c2ccccc2c2ccc(CN3C(=O)N(C[C@H]4O[C@@H](n5nnc(C(N)=O)c5-c5ccccc5)[C@H](O)[C@@H]4O)C(=O)C3Cc3ccccc3)cc21 (some centres unmarked) [compound 246]	13	−1	6	30	15	8	27	28	26	–	–	–	–	–
CCCCCCCCOc1ccc(-c2nc3cc(C(N)=O)ccc3n2C[C@H]2O[C@@H](n3nnc(C(N)=O)c3-c3ccccc3)[C@H](O)[C@@H]2O)cc1 [compound 279]	80	12	17	6	66	31	72	85	20	–	–	–	–	–
CCCc1c(C(N)=O)nnn1[C@@H]1O[C@H](CNCc2nc3cc(C(N)=O)ccc3n2-c2ccc(-c3ccccc3)cc2)[C@@H](O)[C@H]1O [compound 345]	65	41	40	74	58	54	87	82	67	–	–	–	–	–
CCCc1c(C(N)=O)nnn1[C@@H]1O[C@H](Cn2c(-c3ccc(F)c(C(F)(F)F)c3)nc3cc(C(N)=O)ccc32)[C@@H](O)[C@H]1O [compound 456]	104	91	92	107	96	96	103	113	28	–	–	–	–	–
Nc1ncnc2c1ncn2[C@@H]1O[C@H](CN2C(=O)C(Cc3ccccc3)N(Cc3ccccc3Sc3ccc(Cl)cc3)C2=O)[C@@H](O)[C@H]1O (some centres unmarked) [compound 604]	50	3	13	49	27	18	46	46	30	100	–	–	–	–
Nc1ncnc2c1ncn2[C@@H]1O[C@H](CN2C(=O)C(Cc3ccccc3)N(Cc3cccs3)C2=O)[C@@H](O)[C@H]1O (some centres unmarked) [compound 605]	27	5	18	55	20	14	54	56	26	100	–	–	–	–
NC(=O)c1nnn([C@@H]2O[C@H](Cn3c(-c4ccc(OCc5ccccc5)cc4)nc4cc(Cl)c(Cl)cc43)[C@@H](O)[C@H]2O)c1-c1ccccc1 [compound 668]	–	–	–	–	–	–	–	–	–	–	1	16	–	–
NC(=O)c1nnn([C@@H]2O[C@H](Cn3c(-c4ccc(OCc5ccccc5)cc4)nc4cc(Cl)c(Cl)cc43)[C@@H](O)[C@H]2O)c1-c1ccc(Cl)cc1 [compound 669]	–	–	–	–	–	–	–	–	–	–	1	11	97	34
COc1ccc(-c2c(C(N)=O)nnn2[C@@H]2O[C@H](Cn3c(-c4ccc(OCc5ccccc5)cc4)nc4cc(Cl)c(Cl)cc43)[C@@H](O)[C@H]2O)cc1 [compound 670]	–	–	–	–	–	–	–	–	–	–	1	9	–	23
CCCCCCCCOc1ccc(-c2nc3c(NC)ncnc3n2C[C@H]2O[C@@H](n3nnc(C(N)=O)c3-c3ccccc3)[C@H](O)[C@@H]2O)cc1 [compound 725]	–	–	–	–	–	–	–	–	–	–	10	6	–	–
Nc1ncnc2c1ncn2[C@@H]1O[C@H](Cn2c(-c3ccc(OCc4ccccc4)cc3)nc3ccccc32)[C@@H](O)[C@H]1O [compound 912]	96	72	38	96	88	44	88	96	119	70	–	–	–	–
